Drawing on BindingDB's records for PubMed 2885406 (University of California, 1987), this text covers Ki for ten compounds.

Usually Ki stands for a dissociation constant, usually derived from enzyme kinetics or from competition with a known ligand. Lower therefore signals tighter binding.

Structures are written as SMILES. Values joined by “and” are separate entries in the source; they are usually repeats but may differ in a detail not shown here. Identical values can stand only once. Bounds are passed on as bounds.

The experiment deals with T1, Alpha-2C adrenergic receptor (Rattus norvegicus, UniProt P22086).
T1 sequence (P22086 whole entry): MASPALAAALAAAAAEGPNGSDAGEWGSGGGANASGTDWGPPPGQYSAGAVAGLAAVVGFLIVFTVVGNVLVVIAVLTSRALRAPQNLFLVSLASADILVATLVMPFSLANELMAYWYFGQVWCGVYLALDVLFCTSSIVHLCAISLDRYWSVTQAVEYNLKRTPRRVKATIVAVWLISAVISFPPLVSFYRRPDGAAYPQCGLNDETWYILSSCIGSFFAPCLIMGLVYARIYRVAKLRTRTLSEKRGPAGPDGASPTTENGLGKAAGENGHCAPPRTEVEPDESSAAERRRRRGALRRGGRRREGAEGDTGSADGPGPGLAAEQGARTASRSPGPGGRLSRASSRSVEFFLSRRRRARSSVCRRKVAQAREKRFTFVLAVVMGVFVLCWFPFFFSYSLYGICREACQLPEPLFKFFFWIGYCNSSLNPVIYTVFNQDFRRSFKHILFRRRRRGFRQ
As to `O=C(c1ccc(F)cc1)C1CCN(CCn2c(=O)[nH]c3ccccc3c2=O)CC1` [3-(2-{4-[(4-fluorophenyl)carbonyl]piperidin-1-yl}ethyl)-1,2,3,4-tetrahydroquinazoline-2,4-dione], the Ki is 2210 nM and 441 nM.

Compound `NCCc1c[nH]c2ccc(O)cc12` [[3H]-5-HT] returned a Ki greater than 10000 nM.

On to `CC(C)(C)[C@]1(O)CCN2C[C@H]3c4ccccc4CCc4cccc(c43)[C@@H]2C1`, for which the Ki is 220 nM and 107 nM.

As to `NC(N)=NN=Cc1c(Cl)cccc1Cl` [Guanabenz], the Ki is 5.8 nM and 36.7 nM.

In turn, `COc1ccc(OC)c(C(O)C(C)N)c1` (stereo not given) returned a Ki greater than 10000 nM.

Regarding `CCN1CCCC1CNC(=O)c1cc(S(N)(=O)=O)ccc1OC` (stereo not given) [N-[(1-ethylpyrrolidin-2-yl)methyl]-2-methoxy-5-sulfamoylbenzamide], the Ki was 6120 nM and 682 nM.

With `C=CCN1CCc2nc(N)sc2CC1` [B-HT 920], the Ki was 152 nM and 62.2 nM.

For `C[C@H](N)Cc1ccccc1` [beta-aminopropylbenzene], the Ki is 992 nM and 2410 nM.

With `CN1Cc2c(N)cccc2[C@H](c2ccccc2)C1` [(+/-)-2-Methyl-4-phenyl-1,2,3,4-tetrahydro-isoquinolin-8-ylamine], the Ki was 8500 nM and 4990 nM.

On to `NCCc1ccc(O)c(O)c1`, for which the inhibition constant (Ki) was > 10000 nM and 9990 nM.
